Experiment: method code SF, from DOI: 10.1002/em.2850190107, PMID: 1732103

Compound | logP
Nc1ccc2c(c1)Cc1ccccc1-2 | 3.14
Nc1ccc(Oc2ccc(N)cc2)cc1 | 1.36
Cc1ccc(N)cc1N | 0.14
Nc1cc2ccccc2c2ccccc12 | 3.56
Nc1cc(Cl)ccc1O | 1.81
Nc1cccc(C(F)(F)F)c1 | 2.29
Nc1ccc2c3c(cccc13)-c1ccccc1-2 | 4.2
Cc1ccc(N)c(N)c1 | 0.66
Nc1ccc2c(c1)Cc1cc(Br)ccc1-2 | 3.92
COc1cc(-c2ccc(N)c(OC)c2)ccc1N | 1.81
COc1ccc(N)c(C)c1 | 1.23
Nc1cccc2c1Cc1ccccc1-2 | 3.18
Nc1cccc2cc3ccccc3cc12 | 3.69
Cc1ccc(C)c(N)c1 | 1.83
Nc1ccccc1-c1ccccc1N | 1.34
